Data as given in patent US8765750B2, “Piperazine compound having a PGDS inhibitory effect” (Taiho Pharmaceutical Co., Ltd., priority 2010, dated 2014).
Read-outs that look alike come from different tables or passages of the source.

Experiments:
human H-PGDS = human H-PGDS (Homo sapiens (Human), UniProt O60760); assay: Hematopoietic prostaglandin D synthase (H-PGDS) inhibiting action; format: biochemical; settings: for inhibition at 0.1 µM / Inhibition Rate (%) 0.1 μM: compound at 0.1 μM, relative to the control group, human H-PGDS, [14C] prostaglandin H2 10 μM; for inhibition at 0.1 µM: read-out: Inhibition Rate (%) 0.1 μM
Chain of human H-PGDS (O60760 whole entry): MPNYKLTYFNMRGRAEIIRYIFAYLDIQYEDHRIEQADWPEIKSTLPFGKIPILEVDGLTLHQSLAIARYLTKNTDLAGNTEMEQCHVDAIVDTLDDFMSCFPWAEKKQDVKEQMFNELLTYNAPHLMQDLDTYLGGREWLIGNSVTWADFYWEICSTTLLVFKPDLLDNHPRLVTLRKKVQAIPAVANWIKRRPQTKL
Protocol: The test was carried out according to the method of Urade, Y. et al. (J. Biol. Chem., 262, 3820-3825, (1987)). More specifically, the reaction mixture (49 μL) containing 100 mM Tris-HCl (pH 8.0), 1 mM reduced glutathione, 0.1 mg/mL γ-globulin, and human H-PGDS (q.s.), and a compound (final concentration: 0.01-100 μM) was preincubated at 25° C. for 5 minutes. A DMSO solution (final concentration: 1%) was added to the solvent control group. Subsequently, 1 μL of [^14C] prostaglandin H2 (final concentration: 10 μM) was added to start the reaction. One minute after the start of the reaction, 250 μL of a reaction stop solution (diethylether/methanol/1 M citric acid (30/4/1) at a temperature of −20° C. was added to stop the reaction. After the reaction was stopped, 50 μL of the upper-layer portion (organic solvent layer) was applied to a TLC plate and developed at −20° C. for 45 minutes (developing solvent: diethylether/methanol/acetic acid (90/2/1)). After drying the TLC plate, the TLC plate was exposed to an imaging plate for 1 to 24 hours, and the radioactivity corresponding to prostaglandin D2 (PGD2) was analyzed using an image analyzer (produced by Fujifilm Corporation). […]

[1] = tested on: PGD2 production in the nasal cavities of guinea pigs with antigen-induced rhinitis; assay: PGD2 production inhibiting action in the nasal cavities of guinea pigs with antigen-induced rhinitis; format: in vivo; settings: 30 mg/kg orally 1 hour before induction of rhinitis reaction; washing 30 minutes after induction; * = significance level below 0.05 vs control group
Protocol: A physiological saline solution containing 1 mg/mL of ovalbumin was subcutaneously injected into the back of 5-week-old male Std: Hartley guinea pigs in an amount of 1 mL/body for active sensitization (initial sensitization). One week and two weeks after initial sensitization, 20 μL of a physiological saline solution containing 10 mg/mL of ovalbumin was instilled into each nasal cavity using a micropipette (sensitization by nasal administration). Three weeks after initial sensitization, 20 μL of a physiological saline solution containing 10 mg/mL of ovalbumin was instilled into each nasal cavity using a micropipette to induce a rhinitis reaction.
30 minutes after the induction of a rhinitis reaction, the nasal cavities were washed under pentobarbital sodium anesthesia. A nasal cavity washing liquid (phosphate buffered saline containing 3 mM of EDTA and 10 μM of indomethacin) was flushed using a Peristaltic Pump (Gilson, Inc.) in the direction from the trachea to the upper respiratory tract at a flow rate of 1 mL/min, and the liquid flowing out from the nasal cavities was collected for 1 minute. The collected liquid was centrifuged to separate the supernatant as the nasal cavity washing fluid. The concentration of PGD2 in the nasal cavity washing fluid was determined using an EIA kit (Prostaglandin D2-MOX EIA kit, Cayman Chemical).
The test compound (30 mg/kg) was orally administered 1 hour before induction of a rhinitis reaction. A formula to calculate the rate of decrease in PGD2 in the nasal cavity washing fluid is shown below. Rate (%) of decrease in PGD2 in the nasal cavity washing fluid={(PGD2 concentration in the control group−PGD2 concentration in the compound-administered group)÷(PGD2 concentration in the control group−PGD2 concentration in the normal group)}×100
8 or more cases were obtained from each group to determine whether expression of the PGD2 production inhibiting action occurred, and the PGD2 concentration in the nasal cavity washing fluid was compared between the control group and each compound-administered group. […] When the significance level was below 0.05, the action was considered to be present and indicated by a symbol (*) in the table. Reference Example 18, known as an H-PGDS inhibitor, was used as a positive control substance.

[2] = inhibition concentration at 50% relative to H-PGDS, read-out: IC50

Compound | inhibition at 0.1 µM (human H-PGDS) [%] | IC50 (human H-PGDS; [2]) [nM] | further results
Cn1cccc1C(=O)N1CCN(C(=O)NC2CCN(c3ccc(CCCn4cncn4)cc3)CC2)CC1 [Compound 8, 4-((1-methylpyrrol-2-yl)-carbonyl)-N-(1-(4-(3-(1,2,4-triazol-1-yl)-propyl)-phenyl)-piperidin-4-yl)-1-piperazinecarboxamide] | 60.6 | – | –
O=C(NCCN1CCOCC1)c1ccc(N2CCC(NC(=O)N3CCN(C(=O)c4cccs4)CC3)CC2)cc1 [Reference Example 4, 4-((thiophen-2-yl)-carbonyl)-N-(1-(4-(2-morpholinoethylcarbamoyl)-phenyl)-piperidin-4-yl)-1-piperazinecarboxamide, reference compound] | 29.2 | – | –
Cc1nc(C)n(CCCc2ccc(N3CCC(NC(=O)N4CCN(C(=O)c5cccn5C)CC4)CC3)cc2)n1 [Compound 9, 4-((1-methylpyrrol-2-yl)-carbonyl)-N-(1-(4-(3-(3,5-dimethyl-1,2,4-triazol-1-yl)-propyl)-phenyl)-piperidin-4-yl)-1-piperazinecarboxamide] | 54.2 | 61 | –
Cn1cccc1C(=O)N1CCN(C(=O)NC2CCN(c3ccc(CCn4ccnn4)cc3)CC2)CC1 [Compound 7, 4-((1-methylpyrrol-2-yl)-carbonyl)-N-(1-(4-(2-(1,2,3-triazol-1-yl)-ethyl)-phenyl)-piperidin-4-yl)-1-piperazinecarboxamide] | 75 | 15 | –
Cn1cccc1C(=O)N1CCN(C(=O)NC2CCN(c3ccc(C(=O)N4CCCC4)cc3)CC2)CC1 [Compound 6, 4-((1-methylpyrrol-2-yl)-carbonyl)-N-(1-(4-(1-pyrrolidinylcarbonyl)phenyl)-piperidin-4-yl)-1-piperazinecarboxamide] | 63 | 52 | –
4-(4-(4-((1-methylpyrrol-2-yl)-carbonyl)-1-piperazinecarbamoyl)piperidin-1-yl)-benzoic acid [Compound 1] | – | 67 | Inhibition Rate (%) 0.1 μM (human H-PGDS): 57.7%
O=C(Nc1nc2ccc(Cl)cc2s1)N1CCN(C(=O)c2cccc(F)c2)CC1 [Reference Example 16, 4-(3-fluorobenzoyl)-piperazine-1-carboxylic acid-(6-chlorobenzothiazol-2-yl)-amide, reference compound] | 33.8 | – | Rate (%) of decrease in PGD2 in the nasal cavity washing fluid [1]: −38.1%
O=C(Nc1nc2ccc(Br)cc2s1)N1CCN(C(=O)c2cccc(F)c2)CC1 [Reference Example 12, 4-(3-fluorobenzoyl)-piperazine-1-carboxylic acid-(6-bromobenzothiazol-2-yl)-amide, reference compound] | 45.1 | – | Rate (%) of decrease in PGD2 in the nasal cavity washing fluid [1]: 7.9%
Cn1cccc1C(=O)N1CCN(C(=O)NC2CCN(c3ccc(C(=O)N4CCCCC4)cc3)CC2)CC1 [Compound 5, 4-((1-methylpyrrol-2-yl)-carbonyl)-N-(1-(4-(1-piperidinylcarbonyl)phenyl)-piperidin-4-yl)-1-piperazinecarboxamide] | 67.6 | 41 | Rate (%) of decrease in PGD2 in the nasal cavity washing fluid [1]: 88.0* %
O=C(Nc1ccc(C(F)(F)F)cc1)N1CCN(C(=O)c2cccc(F)n2)CC1 [Reference Example 17, 4-(6-fluoropyridine-2-carbonyl)-piperazine-1-carboxylic acid-(4-trifluoromethylphenyl)-amide, reference compound] | 1.8 | – | IC50 (human H-PGDS): 5820 nM; Rate (%) of decrease in PGD2 in the nasal cavity washing fluid [1]: 31.0%
CON(C)C(=O)c1[nH]c(C)c(-c2nc3ccc(C(=O)c4ccccc4)cc3[nH]2)c1C [Reference Example 18] | – | – | Rate (%) of decrease in PGD2 in the nasal cavity washing fluid [1]: 77.0* %
CCn1cccc1C(=O)N1CCN(C(=O)NC2CCN(c3ccc(C(=O)NCCN4CCOCC4)cc3)CC2)CC1 [Compound 15, 4-((1-ethylpyrrol-2-yl)-carbonyl)-N-(1-(4-(2-morpholinoethylcarbamoyl)phenyl)-piperidin-4-yl)-1-piperazinecarboxamide] | 69.9 | 39 | –
Cn1cccc1C(=O)N1CCN(C(=O)NC2CCN(c3ccc(CCCn4ccnn4)cc3)CC2)CC1 [Compound 10, 4-((1-methylpyrrol-2-yl)-carbonyl)-N-(1-(4-(3-(1,2,3-triazol-1-yl)-propyl)-phenyl)-piperidin-4-yl)-1-piperazinecarboxamide] | 74.8 | 27 | –
Cn1cccc1C(=O)N1CCN(C(=O)NC2CCN(c3ccc(C(=O)N4CCOCC4)cn3)CC2)CC1 [Compound 14, 4-((1-methylpyrrol-2-yl)-carbonyl)-N-(1-(5-(4-morpholinylcarbonyl)pyridin-2-yl)-piperidin-4-yl)-1-piperazinecarboxamide] | 57.2 | – | –
Cn1cccc1C(=O)N1CCN(C(=O)NC2CCN(c3ccc(CCC(=O)N4CCOCC4)cc3)CC2)CC1 [Compound 12, 4-((1-methylpyrrol-2-yl)-carbonyl)-N-(1-(4-(3-morpholino-3-oxopropyl)-phenyl)-piperidin-4-yl)-1-piperazinecarboxamide] | 53.6 | – | –
Cn1cccc1C(=O)N1CCN(C(=O)NC2CCN(c3ccc(C(=O)NCc4cccnc4)cc3)CC2)CC1 [Compound 2, 4-((1-methylpyrrol-2-yl)-carbonyl)-N-(1-(4-(pyridin-3-ylmethylcarbamoyl)phenyl)-piperidin-4-yl)-1-piperazinecarboxamide] | 55.2 | – | –
Cn1cccc1C(=O)N1CCN(C(=O)NC2CCN(c3ccc(C=CC(=O)N4CCOCC4)cc3)CC2)CC1 [Compound 11, 4-((1-methylpyrrol-2-yl)-carbonyl)-N-(1-(4-(3-morpholino-3-oxopropen-1-yl)-phenyl)-piperidin-4-yl)-1-piperazinecarboxamide] | 66.7 | – | –
Cn1cccc1C(=O)N1CCN(C(=O)C2CCN(c3ccc(C(=O)O)cn3)CC2)CC1 [Compound 13, 6-(4-(4-((1-methylpyrrol-2-yl)-carbonyl)-1-piperazinecarbamoyl)-piperidin-1-yl)-nicotinic acid] | – | – | Inhibition Rate (%) 0.1 μM (human H-PGDS): 52.8%
Cn1cccc1C(=O)N1CCN(C(=O)NC2CCN(c3ccc(C(=O)NCCN4CCOCC4)cc3)CC2)CC1 [Compound 3, 4-((1-methylpyrrol-2-yl)-carbonyl)-N-(1-(4-(2-morpholinoethylcarbamoyl)-phenyl)-piperidin-4-yl)-1-piperazinecarboxamide] | 69.1 | 27 | –
CCn1cccc1C(=O)N1CCN(C(=O)NC2CCN(c3ccc(CCn4ccnn4)cc3)CC2)CC1 [Compound 16, 4-((1-ethylpyrrol-2-yl)-carbonyl)-N-(1-(4-(2-(1,2,3-triazol-1-yl)-ethyl)-phenyl)-piperidin-4-yl)-1-piperazinecarboxamide] | 68.4 | – | –
O=C(NCCN1CCOCC1)c1ccc(N2CCC(NC(=O)N3CCN(C(=O)c4ccccc4)CC3)CC2)cc1 [Reference Example 11, 4-benzoyl-N-(1-(4-(2-morpholinoethylcarbamoyl)-phenyl)-piperidin-4-yl)-1-piperazinecarboxamide, reference compound] | 30 | – | –
Cn1cccc1C(=O)N1CCN(C(=O)NC2CCN(c3ccc(C(=O)N4CCOCC4)cc3)CC2)CC1 [Compound 4, 4-((1-methylpyrrol-2-yl)-carbonyl)-N-(1-(4-(4-morpholinylcarbonyl)phenyl)-piperidin-4-yl)-1-piperazinecarboxamide] | 69.8 | 31 | –
